Experimental data taken from patent US10336762B2 (priority 2017, dated 2019).
Read-outs that look alike come from different tables or passages of the source.

Tests used:
[1] = test system: TNFα; test: cells; type: cell-based, human; details: read-out: EC50 TNF
[2] = target: IRAK4 enzyme (Homo sapiens (Human), UniProt Q9NWZ3); test: biochemical; type: biochemical
[3] = Homo sapiens, Monocyte, LPS-stimulated human monocytes, TNFα content
[4] = IRAK4 enzyme, TR-FRET, 500 μM ATP

Chain of IRAK4 enzyme (Q9NWZ3 whole entry): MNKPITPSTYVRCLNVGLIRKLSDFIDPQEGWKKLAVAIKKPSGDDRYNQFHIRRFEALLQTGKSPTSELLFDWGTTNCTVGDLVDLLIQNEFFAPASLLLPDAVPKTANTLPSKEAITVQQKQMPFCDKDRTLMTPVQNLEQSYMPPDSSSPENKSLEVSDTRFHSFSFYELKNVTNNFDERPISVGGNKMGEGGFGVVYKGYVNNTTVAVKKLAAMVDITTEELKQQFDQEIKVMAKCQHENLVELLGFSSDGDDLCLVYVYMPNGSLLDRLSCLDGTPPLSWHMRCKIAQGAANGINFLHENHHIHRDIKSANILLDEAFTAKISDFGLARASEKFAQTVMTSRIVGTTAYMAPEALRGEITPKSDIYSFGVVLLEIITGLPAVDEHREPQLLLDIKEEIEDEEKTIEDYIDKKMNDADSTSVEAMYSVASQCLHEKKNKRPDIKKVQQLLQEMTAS

| SMILES | EC50 [1, 3] [nM] | IC50 [2, 4] [nM] | EC50 ([1]; LPS-stimulated human monocytes, TNFα content) [nM] | EC50 ([1]; Homo sapiens, Monocyte) [nM] | IC50 [2] [nM] |
| --- | --- | --- | --- | --- | --- |
| CC(C)(O)[C@H](F)CNC(=O)c1cnc(-c2ccc3cc(C#N)cnn23)cc1N[C@H]1CC[C@@H](NC(=O)C(F)(F)F)CC1 [Example 319, 6-(3-cyanopyrrolo[1,2-b]pyridazin-7-yl)-N-((R)-2-fluoro-3-hydroxy-3-methyl-butyl)-4-(((1s,4S)-4-(2,2,2-trifluoroacetamido)cyclo-hexyl)amino)nicotinamide] | 2220 | 19 | – | – | – |
| CC(=O)N[C@H]1CC[C@@H](Nc2cc(-c3ccc4cc(C#N)cnn34)ncc2C(=O)NC[C@@H](F)C(C)(C)O)CC1 [Example 320, 4-(((1s,4S)-4-acetamidocyclohexyl)amino)-6-(3-cyano-pyrrolo[1,2-b]pyridazin-7-yl)-N-((R)-2-fluoro-3-hydroxy-3-methylbutyl) nicotinamide] | 1910 | 3 | – | – | – |
| CC(C)(O)[C@H](F)CNC(=O)c1cnc(-c2ccc3cc(C#N)cnn23)cc1NC1CC1CO (stereo partly drawn) [Example 321, 6-(3-cyanopyrrolo[1,2-b]pyridazin-7-yl)-N-((R)-2-fluoro-3-hydroxy-3-methylbutyl)-4-((2-(hydroxymethyl)cyclo-propyl)amino)nicotinamide] | – | < 1 | 38 | – | – |
| CC(C)Nc1cc(-c2ccc3cc(C#N)cnn23)ncc1C(=O)N[C@H]1CCOC[C@@H]1F [Example 322, 6-(3-cyanopyrrolo[1,2-b]pyridazin-7-yl)-N-((3R,4S)-3-fluorotetrahydro-2H-pyran-4-yl)-4-(isopropylamino) nicotinamide] | 169 | 5 | – | – | – |
| CC(C)Nc1cc(-c2ccc3cc(C#N)cnn23)ncc1C(=O)N[C@@H]1CCOC[C@H]1F [Example 323, 6-(3-cyanopyrrolo[1,2-b]pyridazin-7-yl)-N-((3S,4R)-3-fluoro-tetrahydro-2H-pyran-4-yl)-4-(isopropylamino) nicotinamide] | 187 | 5 | – | – | – |
| C[C@@H](O)C(=O)N1CCC(Nc2cc(-c3ccc4cc(C#N)cnn34)ncc2C(=O)NC[C@@H](F)C(C)(C)O)CC1 [Example 324, 6-(3-cyanopyrrolo[1,2-b]pyridazin-7-yl)-N-((R)-2-fluoro-3-hydroxy-3-methylbutyl)-4-((1-((R)-2-hydroxy-propanoyl)piperidin-4-yl)amino)nicotinamide] | 157 | 2 | – | – | – |
| CC1(C(=O)N2CCC(Nc3cc(-c4ccc5cc(C#N)cnn45)ncc3C(=O)NC[C@@H](F)C(C)(C)O)CC2)COC1 [Example 325, (R)-6-(3-cyanopyrrolo[1,2-b]pyridazin-7-yl)-N-(2-fluoro-3-hydroxy-3-methylbutyl)-4-((1-(3-methyloxetane-3-carbonyl)piperidin-4-yl)amino)nicotinamide] | 228 | 3 | – | – | – |
| CC(=O)N[C@H]1CC[C@H](Nc2cc(-c3ccc4cc(C#N)cnn34)ncc2C(=O)NC[C@@H](F)C(C)(C)O)CC1 [Example 326, 4-(((1r,4R)-4-acetamidocyclohexyl)amino)-6-(3-cyanopyrrolo[1,2-b]pyridazin-7-yl)-N-((R)-2-fluoro-3-hydroxy-3-methylbutyl)nicotinamide] | – | – | – | 56 | < 1 |
| CC(C)(O)[C@H](F)CNC(=O)c1cnc(-c2ccc3cc(C#N)cnn23)cc1NC1CCNC(=O)C1 (stereo partly drawn) [Example 327, 6-(3-cyanopyrrolo[1,2-b]pyridazin-7-yl)-N-((R)-2-fluoro-3-hydroxy-3-methylbutyl)-4-((2-oxo-piperidin-4-yl)amino)nicotinamide] | 738 | 1 | – | – | – |
| COCC(=O)N1CCC(Nc2cc(-c3ccc4cc(C#N)cnn34)ncc2C(=O)NC[C@@H](F)C(C)(C)O)CC1 [Example 328, (R)-6-(3-cyanopyrrolo[1,2-b]pyridazin-7-yl)-N-(2-fluoro-3-hydroxy-3-methylbutyl)-4-((1-(2-methoxyacetyl)piperidin-4-yl)amino)nicotinamide] | 300 | 6 | – | – | – |
| CC(C)(O)[C@H](F)CNC(=O)c1cnc(-c2ccc3cc(C#N)cnn23)cc1NC1CCN(CC(F)(F)F)CC1 [Example 329, (R)-6-(3-cyanopyrrolo[1,2-b]pyridazin-7-yl)-N-(2-fluoro-3-hydroxy-3-methylbutyl)-4-((1-(2,2,2-trifluoroethyl)piperidin-4-yl)amino)nicotinamide] | 62 | 1 | – | – | – |
| CC(C)Nc1cc(-c2ccc3cc(C#N)cnn23)ncc1C(=O)NCC(O)C(C)(C)O (stereo not drawn) [Example 330, 6-(3-cyanopyrrolo[1,2-b]pyridazin-7-yl)-N-(2,3-dihydroxy-3-methyl-butyl)-4-(isopropylamino) nicotinamide] | 171 | 6 | – | – | – |
| N#Cc1cnn2c(-c3cc(NC45CCC(O)(CC4)CC5)c(C(=O)NCC(=O)N4CC(F)(F)C4)cn3)ccc2c1 [Example 331, 6-(3-cyanopyrrolo[1,2-b]pyridazin-7-yl)-N-(2-(3,3-difluoroazetidin-1-yl)-2-oxoethyl)-4-((4-hydroxybicyclo[2.2.2]octan-1-yl)amino) nicotinamide] | 25 | < 1 | – | – | – |
| CC(C)Nc1cc(-c2ccc3cc(C#N)cnn23)ncc1C(=O)NCC(=O)C(C)(C)O [Example 332, 6-(3-cyanopyrrolo[1,2-b]pyridazin-7-yl)-N-(3-hydroxy-3-methyl-2-oxobutyl)-4-(isopropyl-amino)nicotinamide] | 43 | < 1 | – | – | – |
| CN(C)C(=O)CNC(=O)c1cnc(-c2ccc3cc(C#N)cnn23)cc1NC12CCC(O)(CC1)CC2 [Example 333, 6-(3-cyanopyrrolo[1,2-b]pyridazin-7-yl)-N-(2-(dimethylamino)-2-oxo-ethyl)-4-((4-hydroxy-bicyclo[2.2.2]octan-1-yl)amino)nicotinamide] | 87 | < 1 | – | – | – |
| CNC(=O)CNC(=O)c1cnc(-c2ccc3cc(C#N)cnn23)cc1NC12CCC(O)(CC1)CC2 [Example 334, 6-(3-cyanopyrrolo[1,2-b]pyridazin-7-yl)-4-((4-hydroxybicyclo[2.2.2]octan-1-yl)amino)-N-(2-(methylamino)-2-oxoethyl)nicotinamide] | 292 | < 1 | – | – | – |
| CC(C)(O)[C@H](F)CNC(=O)c1cnc(-c2ccc3cc(C#N)cnn23)cc1Nc1nc(Cc2ccccc2)ns1 [Example 335, (R)-4-((3-benzyl-1,2,4-thiadiazol-5-yl)amino)-6-(3-cyanopyrrolo[1,2-b]pyridazin-7-yl)-N-(2-fluoro-3-hydroxy-3-methylbutyl)nicotinamide] | 100 | 3 | – | – | – |
| CC(C)(O)[C@H](F)CNC(=O)c1cnc(-c2ccc3cc(C#N)cnn23)cc1Nc1nnc(Cc2ccccc2)o1 [Example 336, (R)-4-((5-benzyl-1,3,4-oxadiazol-2-yl)amino)-6-(3-cyanopyrrolo[1,2-b]pyridazin-7-yl)-N-(2-fluoro-3-hydroxy-3-methyl-butyl)nicotinamide] | 522 | 5 | – | – | – |
| CC(C)(O)[C@H](F)CNC(=O)c1cnc(-c2ccc3cc(C#N)cnn23)cc1Nc1nc(Cc2ccccc2)cs1 [Example 337, (R)-4-((4-benzylthiazol-2-yl)amino)-6-(3-cyanopyrrolo[1,2-b]pyridazin-7-yl)-N-(2-fluoro-3-hydroxy-3-methylbutyl)nicotinamide] | 73 | 5 | – | – | – |
| CNC(=O)c1csc(Nc2cc(-c3ccc4cc(C#N)cnn34)ncc2C(=O)NC[C@@H](F)C(C)(C)O)n1 [Example 338, (R)-2-((2-(3-cyanopyrrolo[1,2-b]pyridazin-7-yl)-5-((2-fluoro-3-hydroxy-3-methylbutyl)carbamoyl)pyridin-4-yl)amino)-N-methylthiazole-4-carboxamide] | 304 | 3 | – | – | – |
| COC(=O)[C@H](C)NC(=O)c1cnc(-c2ccc3cc(C#N)cnn23)cc1NC12CCC(O)(CC1)CC2 [Example 339, methyl (6-(3-cyano-pyrrolo[1,2-b]pyridazin-7-yl)-4-((4-hydroxy-bicyclo[2.2.2]octan-1-yl)amino)nicotinoyl)-L-alaninate] | 264 | 1 | – | – | – |
| COC(=O)[C@@H](C)NC(=O)c1cnc(-c2ccc3cc(C#N)cnn23)cc1NC12CCC(O)(CC1)CC2 [Example 340, methyl (6-(3-cyano-pyrrolo[1,2-b]pyridazin-7-yl)-4-((4-hydroxy-bicyclo[2.2.2]octan-1-yl)amino)nicotinoyl)-D-alaninate] | 139 | 1 | – | – | – |
| COC(=O)CNC(=O)c1cnc(-c2ccc3cc(C#N)cnn23)cc1NC12CCC(O)(CC1)CC2 [Example 341, methyl (6-(3-cyano-pyrrolo[1,2-b]pyridazin-7-yl)-4-((4-hydroxy-bicyclo[2.2.2]octan-1-yl)amino)nicotinoyl) glycinate] | 16 | < 1 | – | – | – |
| CC(C)(CCNC(=O)c1cnc(-c2ccc3cc(C#N)cnn23)cc1NC12CCC(O)(CC1)CC2)NS(C)(=O)=O [Example 342, 6-(3-cyanopyrrolo[1,2-b]pyridazin-7-yl)-4-((4-hydroxybicyclo[2.2.2]octan-1-yl)amino)-N-(3-methyl-3-(methyl-sulfonamido)butyl) nicotinamide] | 83 | 1 | – | – | – |
| COC(=O)NC(C)(C)CCNC(=O)c1cnc(-c2ccc3cc(C#N)cnn23)cc1NC12CCC(O)(CC1)CC2 [Example 343, Methyl (4-(6-(3-cyanopyrrolo[1,2-b]pyridazin-7-yl)-4-((4-hydroxybicyclo[2.2.2]octan-1-yl)amino)nicotinamido)-2-methylbutan-2-yl)carbamate] | 38 | 1 | – | – | – |
| CC(=O)NC(C)(C)CCNC(=O)c1cnc(-c2ccc3cc(C#N)cnn23)cc1NC12CCC(O)(CC1)CC2 [Example 344, N-(3-acetamido-3-methylbutyl)-6-(3-cyanopyrrolo[1,2-b]pyridazin-7-yl)-4-((4-hydroxybicyclo[2.2.2]octan-1-yl)amino) nicotinamide] | 48 | 2 | – | – | – |
| CC(C)(N)CCNC(=O)c1cnc(-c2ccc3cc(C#N)cnn23)cc1NC12CCC(O)(CC1)CC2 [Example 345, N-(3-amino-3-methylbutyl)-6-(3-cyanopyrrolo[1,2-b]pyridazin-7-yl)-4-((4-hydroxybicyclo[2.2.2]octan-1-yl)amino)nicotinamide] | 116 | 1 | – | – | – |
